Peptide text beside a SMILES is read from it.
Compound	logP
Oc1ccc(Oc2ccccc2)cc1	3.35
CC(=O)Nc1nccs1	0.76
C[n+]1cccc2ccccc21.[Br-]	-2.64
CCC(C)c1ccccc1OCC(=O)O (stereo not drawn)	3.32
Nc1ccccc1Oc1ccccc1	2.46
Nc1nc(N)nc(-c2ccccc2Cl)n1	1.19
C=C1C[C@]23C[C@@]1(O)CC[C@H]2[C@@]12C=C[C@H](O)[C@@](C)(C(=O)O1)[C@H]2[C@@H]3C(=O)O	0.24
N#Cc1cccc([N+](=O)[O-])c1	1.17
Oc1ccc(Br)cc1Br	3.22
Cc1nc(-c2ccccc2)c2ccccc2n1	3.1
O=C(O)c1cccc(C(F)(F)F)c1	2.95
CC=Cc1ccccc1	3.35
N#Cc1ccco1	0.96
CN(CC(O)COc1ccccc1)CC(O)COc1ccccc1 (stereo not drawn)	2.92
CNCC(CC(C)C)c1ccccc1 (stereo not drawn)	3.76
CC[C@H](C)[C@H](NC(=O)[C@@H](NC(=O)[C@H](C)NC(C)=O)C(C)C)C(N)=O	-0.2
NN(c1ccccc1)c1ccccc1	2.8
OCCOc1ccccc1	1.16
CC1CN1C1=CC(=O)C(N2CC2C)=CC1=O (stereo not drawn)	1.07
CCc1cccc(C)c1N(C(=O)CCl)C(C)COC (stereo not drawn)	3.13
CC(=O)OC1C(=O)C2(C)C(O)CC3OCC3(OC(C)=O)C2C(OC(=O)c2ccccc2)C(C)(O)C2(C)CC(OC(=O)C(C)O)C(C)=C12 (stereo not drawn)	1.52

Compound	logP
COc1cc(NCc2ccc3nc(N)nc(N)c3c2C)cc(OC)c1OC	2.55
O=C(NCCO)C(F)(F)Cn1ccnc1[N+](=O)[O-]	-0.52
CCOP(=S)(OCC)Oc1ccc(S(C)=O)cc1 (stereo not drawn)	2.23
CCC(C(N)=O)(C(N)=O)c1ccccc1	0.13
CNC(=O)Oc1ccc2ccccc2c1	2.56
[N-]=[N+]=Nc1ccccc1	2.59
CC(C)CCOc1cc(N)ccc1C(=O)O	2.3
CC(=O)c1cccc(NC(=O)N(C)C)c1	0.95
O=C1C=CCO1	-0.6
COP(=O)(OC)OC=C(Cl)Cl	1.43
CN1C(=O)CC(=O)NC1=O	-0.85
CC(=O)N[C@@H](Cc1ccccc1)C(=O)NCC(=O)N[C@@H](CC(C)C)C(N)=O	0.6
NC(Cc1ccc([N+](=O)[O-])cc1)C(=O)O (stereo not drawn)	-1.25
N#Cc1ccccc1	1.56
CCC(C)NP(=O)(OC)Oc1cc(Cl)c(Cl)cc1Cl (stereo not drawn)	3.99
CC(=O)c1ccc(Cl)cc1	2.32
NC(=O)c1cccc([N+](=O)[O-])c1	0.77
COc1ccc(-c2cc3ccccn3c2)cc1	4.2
NC(=O)CCN1CCc2cccc(Cl)c2CC1	1.64
CC(=O)Oc1ccc([N+](=O)[O-])cc1	1.5
CC(=O)Nc1cccc(C(F)(F)F)c1	2.56

Compound	logP
CCn1cnc2c(NC(C)=O)ncnc21	-0.41
O=C(O)COc1ccccc1I	2.33
Cc1ccc([N+](=O)[O-])cc1	2.37
O=C(C=Cc1ccco1)c1ccco1	2.34
CC(C)=C1C(=O)OC2CC(C)C3C=CC(=O)C3(C)C(O)C12 (stereo not drawn)	1.47
CCOC(=O)CC(SP(=S)(OC)OC)C(=O)OCC (stereo not drawn)	2.36
CNC(=O)Oc1ccc(OC)cc1	1.2
O=C(O)Cc1ccc(OCCCc2ccccc2)c(Cl)c1	3.9
CC(C)=CC1C(C(=O)OCc2ccccc2)C1(C)C (stereo not drawn)	5.49
CC(C)c1nnc(S)n(N)c1=O	1.22
NC(=O)Nc1ccccc1F	0.88
O=c1nccc[nH]1	-1.62
COc1ccccc1O	1.32
Oc1ccc(O)c(Cl)c1	1.4
COc1ccc(OCC(=O)O)cc1	1.23
CCS(=O)(=O)CC	-0.59
Cc1cccc(C)c1O	2.36
Nc1ccc2ccccc2c1S(=O)(=O)O	-1.16
C(=Cc1ccccn1)c1ccccn1	2.11
CC1=C(C(=O)Nc2ccccc2)SCCO1	2.14
O=S(c1ccccc1)c1ccccc1	2.06

Compound	logP
CCCCNC1=CC(=O)c2ccccc2C1=O	3.11
O=C1OC(c2ccccc2)c2ccccc21 (stereo not drawn)	2.64
CCCCCCCBr	4.36
c1cn(C23CC4CC(CC(C4)C2)C3)cn1	2.9
CCC(C)C(NC(=O)C(Cc1ccccc1)NC(C)=O)C(=O)NCC(N)=O (stereo not drawn) (Ac-Phe-Ile-Gly-NH2; configuration not given here)	0.34
CCCCCF	2.33
COC(=O)CCCCCC(=O)OCC(=O)C1(O)CCC2C3CCC4=CC(=O)CCC4(C)C3C(O)CC21C (stereo not drawn)	3.7
COC(=O)CCCCC(C)=O	0.55
CC#CC#CC	2.24
C1=Cc2ccc3c4c(ccc(c24)C1)-c1ccccc1-3	5.78
COc1ccc([N+](=O)[O-])cn1	1.55
CCCCOC(=O)c1ccc(O)cc1	3.57
S=c1[nH]c2ccccc2[nH]1	1.66
CC(=O)c1ccc(Br)cc1	2.43
Nc1ccc(-c2nc([N+](=O)[O-])c[nH]2)cc1	0.86
Cc1ccc2c(c1)nc(N)n2C	1.47
CC(=O)c1ccc(O)cc1	1.35
C1=CC=CC=CC=C1	3.08
CCOC(=O)c1cc2ccc(CC)cc2nn1	2.31
COP(=S)(OC)SCSc1ccc(Cl)cc1	4.82
